In US11186566B2, “Modulator of cystic fibrosis transmembrane conductance regulator, pharmaceutical compositions, methods of treatment, and process for making the modulator” (Vertex Pharmaceuticals Incorporated, priority 2016, dated 2021):
Read-outs that look alike come from different tables or passages of the source.

Key:
Rat IV and PO PK studies = type: in vivo, male Sprague-Dawley rats; details: male, Sprague-Dawley, plasma; for bioavailability / AUC: oral; for bioavailability: read-out: Rat po % F; for clearance: intravenous, 3.0 mg/kg, read-out: Rat iv CL
Method: 5C. Experimental Protocol for Rat IV and PO PK Studies
[…] […] Analyses of plasma and dose preparations were performed using LC/MS/MS.
Plasma concentration-time profiles of the tested compound in Sprague-Dawley rats at scheduled (nominal) sampling times were analyzed by noncompartmental pharmacokinetic methods using PK function within Watson LIMS software, Version 7.4.2 (Thermo Scientific Inc, Waltham, Mass.). AUC values were calculated using the linear trapezoidal rule.

F508del-CFTR = F508del-CFTR (Homo sapiens (Human), UniProt P13569, DEL508-508); assay: Membrane potential optical (fluorescent voltage sensing dye, FLIPR III) HTS assay for F508del-CFTR modulators; type: cell-based
Source text: Membrane Potential Optical Methods for Assaying Properties of F508del-CFTR Modulators
The assay utilizes fluorescent voltage sensing dyes to measure changes in membrane potential using a fluorescent plate reader (e.g., FLIPR III, Molecular Devices, Inc.) as a readout for increase in functional F508del in NIH 3T3 cells.
5A-A1. Identification of F508Del-CFTR Modulators
To identify modulators of F508del, a fluorescence based HTS assay format was developed. This HTS assay utilizes fluorescent voltage sensing dyes to measure changes in membrane potential on the FLIPR III as a measurement for increase in gating (conductance) of F508del NIH 3T3 cells.
(in mM) NaCl 160, KCl 4.5, CaCl2 2, MgCl2 1, HEPES 10, pH 7.4 with NaOH, Glucose 10.
Chloride salts in Bath Solution #1 (above) are substituted with gluconate salts.
NIH3T3 mouse fibroblasts stably expressing F508del are used for optical measurements of membrane potential. The cells are maintained at 37° C. in 5% CO2 and 90% humidity in Dulbecco's modified Eagle's medium supplemented with 2 mM glutamine, 10% fetal bovine serum, 1×NEAA, β-ME, 1×pen/strep, and 25 mM HEPES in 175 cm^2 culture flasks. For all optical assays, the cells were seeded at 12,000 cells/well in 384-well matrigel-coated plates and cultured for 18-24 hrs at 37° C. for the potentiator assay. For the correction assays, the cells are cultured at 37° C. with and without compounds for 18-24 hours.

human PXR = human PXR (Homo sapiens (Human), UniProt O75469); assay: PXR assay (PXR mediated CYP3A4 induction, DPX-2 cell line); type: cell-based; details: DPX-2 cells, 48 hours, 0.1 to 60 μM
Method: 5D. Experimental Protocol for PXR Assay
The propensity for PXR mediated CYP3A4 induction is assessed using the DPX-2 cell line in vitro. This cell line, which has been licensed from Puracyp Inc. was derived from HepG2 cells and has been stably transfected with genes encoding human PXR as well as a modified luciferase reporter linked to the CYP3A4 promoter region and related distal and proximal enhancers.
The assay is run in 384 well format and each test article is administered in 11 doses ranging from 0.1 to 60 μM. On day 1, DPX-2 cells which have previously been expanded in-house and cryopreserved are thawed and seeded in tissue culture plates. The following day, media is changed and cells are cultured in media containing test article, vehicle control or the positive control compound, the clinically validated CYP3A4 inducer rifampicin. Cells are cultured in the presence of test article for 48 hours and then cell viability is assessed using fluorescence based assay (Cell Titer-Fluor, Promega) with an EnVision Plate Reader (PerkinElmer). Subsequently, CYP3A4 transactivation, which is proportional to luciferase activity, is measured by reading luminescense using the Promega One-Glo reagent system using the same plate reader.
Data processing within the Genedata software package allows reporting of max fold induction compared to vehicle control, an EC50 value for CYP3A4 inducers and an 11 point-dose response curve.

[1] = F508del NIH 3T3 cells, assay 5A-A1, read-out: CFTRdF508 EC50
[2] = Table 9, read-out: CFTR dF508 EC50

human PXR, sequence (O75469 whole entry): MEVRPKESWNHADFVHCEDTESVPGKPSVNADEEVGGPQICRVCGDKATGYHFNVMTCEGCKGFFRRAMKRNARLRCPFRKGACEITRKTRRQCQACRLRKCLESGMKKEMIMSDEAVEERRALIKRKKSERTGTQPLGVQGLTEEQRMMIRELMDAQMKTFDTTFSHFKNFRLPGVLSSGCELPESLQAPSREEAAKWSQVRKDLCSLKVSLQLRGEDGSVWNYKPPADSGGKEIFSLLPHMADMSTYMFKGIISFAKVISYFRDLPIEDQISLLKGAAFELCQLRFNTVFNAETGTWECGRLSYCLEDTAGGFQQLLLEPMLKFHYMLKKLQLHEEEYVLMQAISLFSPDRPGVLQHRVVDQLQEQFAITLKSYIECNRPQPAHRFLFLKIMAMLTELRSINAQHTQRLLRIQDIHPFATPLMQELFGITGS
F508del-CFTR, sequence (P13569 other isoform, or with tags, fused parts or gaps del F508-F508): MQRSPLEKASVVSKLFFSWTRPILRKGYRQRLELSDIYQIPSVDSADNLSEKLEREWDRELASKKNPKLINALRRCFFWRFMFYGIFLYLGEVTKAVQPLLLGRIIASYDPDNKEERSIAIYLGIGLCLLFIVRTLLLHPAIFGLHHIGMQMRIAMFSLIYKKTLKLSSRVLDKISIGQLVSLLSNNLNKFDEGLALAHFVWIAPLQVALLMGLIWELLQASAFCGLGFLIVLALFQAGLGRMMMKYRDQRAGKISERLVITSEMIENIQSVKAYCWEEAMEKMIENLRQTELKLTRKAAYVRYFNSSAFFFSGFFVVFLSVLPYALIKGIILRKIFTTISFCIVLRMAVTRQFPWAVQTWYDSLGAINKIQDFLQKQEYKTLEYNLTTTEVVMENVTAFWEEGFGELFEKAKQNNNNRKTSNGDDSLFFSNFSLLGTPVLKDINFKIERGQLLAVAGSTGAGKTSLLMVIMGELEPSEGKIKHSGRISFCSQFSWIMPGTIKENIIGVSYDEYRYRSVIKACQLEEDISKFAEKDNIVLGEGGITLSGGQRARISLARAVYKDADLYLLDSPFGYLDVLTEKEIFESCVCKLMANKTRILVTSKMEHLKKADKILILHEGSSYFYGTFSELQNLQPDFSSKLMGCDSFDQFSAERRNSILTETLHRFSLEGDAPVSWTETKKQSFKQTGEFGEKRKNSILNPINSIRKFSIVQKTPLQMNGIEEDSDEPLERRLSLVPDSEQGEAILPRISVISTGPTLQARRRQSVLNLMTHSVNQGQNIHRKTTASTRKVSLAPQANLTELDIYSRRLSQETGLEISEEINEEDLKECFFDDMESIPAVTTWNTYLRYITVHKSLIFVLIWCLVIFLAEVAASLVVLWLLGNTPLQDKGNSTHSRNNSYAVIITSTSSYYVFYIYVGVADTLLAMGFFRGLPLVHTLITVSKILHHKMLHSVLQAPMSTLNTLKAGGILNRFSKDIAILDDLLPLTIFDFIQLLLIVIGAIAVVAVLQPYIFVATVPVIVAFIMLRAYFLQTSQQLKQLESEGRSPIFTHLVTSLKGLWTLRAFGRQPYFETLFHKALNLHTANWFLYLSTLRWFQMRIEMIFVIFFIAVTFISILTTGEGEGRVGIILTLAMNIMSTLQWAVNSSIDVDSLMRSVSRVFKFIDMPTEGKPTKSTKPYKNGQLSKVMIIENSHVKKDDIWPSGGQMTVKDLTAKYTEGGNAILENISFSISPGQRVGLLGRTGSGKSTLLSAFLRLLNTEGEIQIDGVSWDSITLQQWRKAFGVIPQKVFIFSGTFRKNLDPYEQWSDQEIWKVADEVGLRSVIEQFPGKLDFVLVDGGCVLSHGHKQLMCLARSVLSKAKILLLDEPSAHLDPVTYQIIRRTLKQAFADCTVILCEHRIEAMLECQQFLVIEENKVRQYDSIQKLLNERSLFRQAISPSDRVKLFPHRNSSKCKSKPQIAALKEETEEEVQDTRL

| Structure (SMILES) | bioavailability (Rat IV and PO PK studies; 3 mg/kg) [%] | clearance (Rat IV and PO PK studies) [mL/min/kg] | AUC (Rat IV and PO PK studies; 3 mg/kg) [ng·h/mL] | EC50 (F508del-CFTR; [1]) [nM] | EC50 (F508del-CFTR; [2]) [nM] | PXR Max Induction (% of rifampicin) (human PXR) | AUC (Rat IV and PO PK studies; 10 mg/kg for Compound A, read-out: Rat po AUC) [ng·h/mL] |
| --- | --- | --- | --- | --- | --- | --- | --- |
| C[C@@H]1CN(c2nc(-n3ccc(OCC4(C(F)(F)F)CC4)n3)ccc2C(=O)NS(=O)(=O)c2ccc(C#N)cc2)C(C)(C)C1 [Comp. 27, N-(4-Cyanophenyl)sulfonyl-6-[3-[[1-(trifluoromethyl)cyclopropyl]methoxy]pyrazol-1-yl]-2-[(4S)-2,2,4-trimethylpyrrolidin-1-yl]pyridine-3-carboxamide] | 100 | 3.6 | 20300 | 100 to 1000 | 270 | 8 % of rifampicin | – |
| C[C@@H]1CN(c2cc(-n3ccc(OCCC4(C(F)(F)F)CC4)n3)ncc2C(=O)NS(=O)(=O)c2ccccc2)C(C)(C)C1 [Comp. 44, (S)—N-(phenylsulfonyl)-6-(3-(2-(1-(trifluoromethyl)cyclopropyl)ethoxy)-1H-pyrazol-1-yl)-4-(2,2,4-trimethylpyrrolidin-1-yl)nicotinamide] | 81 | 5 | 8500 | 100 to 1000 | 620 | 18 % of rifampicin | – |
| Cc1ccc(S(=O)(=O)NC(=O)c2ccc(-n3ccc(OCC4(C(F)(F)F)CC4)n3)nc2N2C[C@@H](C)CC2(C)C)cc1 [Compound 24, N-(p-Tolylsulfonyl)-6-[3-[[1-(trifluoromethyl)cyclopropyl]methoxy]pyrazol-1-yl]-2-[(4S)-2,2,4-trimethylpyrrolidin-1-yl]pyridine-3-carboxamide] | 98 | 2.6 | 20000 | < 100 | 70 | 9 % of rifampicin | – |
| Cc1ccccc1S(=O)(=O)NC(=O)c1ccc(-n2ccc(OCC3C(C)(C)C3(C)C)n2)nc1N1C[C@@H](C)CC1(C)C [Compound 15, N-(o-Tolylsulfonyl)-6-[3-[(2,2,3,3-tetramethylcyclopropyl)methoxy]pyrazol-1-yl]-2-[(4S)-2,2,4-trimethylpyrrolidin-1-yl]pyridine-3-carboxamide] | – | – | – | < 100 | 20 | 0 % of rifampicin | – |
| COc1ccc(S(=O)(=O)NC(=O)c2ccc(-n3ccc(OCC4(C(F)(F)F)CC4)n3)nc2N2C[C@@H](C)CC2(C)C)c(OC)c1 [Compound 13, N-(2,4-Dimethoxyphenyl)sulfonyl-6-[3-[[1-(trifluoromethyl)cyclopropyl]methoxy]pyrazol-1-yl]-2-[(4S)-2,2,4-trimethylpyrrolidin-1-yl]pyridine-3-carboxamide] | – | – | – | 100 to 1000 | 110 | 2 % of rifampicin | – |
| COc1ccc(S(=O)(=O)NC(=O)c2ccc(-n3ccc(OCC4(C(F)(F)F)CC4)n3)nc2N2C[C@@H](C)CC2(C)C)c(C)c1 [Comp. 57, N-(4-Methoxy-2-methyl-phenyl)sulfonyl-6-[3-[[1-(trifluoromethyl)cyclopropyl]methoxy]pyrazol-1-yl]-2-[(4S)-2,2,4-trimethylpyrrolidin-1-yl]pyridine-3-carboxamide] | – | – | – | < 100 | 80 | 2 % of rifampicin | – |
| COc1cccc(S(=O)(=O)NC(=O)c2ccc(-n3ccc(OCC4(C(F)(F)F)CC4)n3)nc2N2C[C@@H](C)CC2(C)C)c1 [Comp. 49, N-(3-methoxyphenyl)sulfonyl-6-[3-[[1-(trifluoromethyl)cyclopropyl]methoxy]pyrazol-1-yl]-2-[(4S)-2,2,4-trimethylpyrrolidin-1-yl]pyridine-3-carboxamide] | – | – | – | < 100 | 20 | 19 % of rifampicin | – |
| Cc1ccccc1S(=O)(=O)NC(=O)c1ccc(-n2ccc(OCCC3(C(F)(F)F)CC3)n2)nc1N1C[C@@H](C)CC1(C)C [Compound 4, N-(o-Tolylsulfonyl)-6-[3-[2-[1-(trifluoromethyl)cyclopropyl]ethoxy]pyrazol-1-yl]-2-[(4S)-2,2,4-trimethylpyrrolidin-1-yl]pyridine-3-carboxamide] | – | – | – | < 100 | 20 | 4 % of rifampicin | – |
| C[C@@H]1CN(c2nc(-n3ccc(OCC(C)(C)C)n3)ccc2C(=O)NS(=O)(=O)c2cccnc2N)C(C)(C)C1 [Comp. A, reference compound] | 28 | 17.8 | – | – | – | 2 % of rifampicin | 1200 |

Continued, values first:

| bioavailability (Rat IV and PO PK studies; 3 mg/kg) [%] | clearance (Rat IV and PO PK studies) [mL/min/kg] | AUC (Rat IV and PO PK studies; 3 mg/kg) [ng·h/mL] | EC50 (F508del-CFTR; [1]) [nM] | EC50 (F508del-CFTR; [2]) [nM] | PXR Max Induction (% of rifampicin) (human PXR) | AUC (Rat IV and PO PK studies; 10 mg/kg for Compound A, read-out: Rat po AUC) [ng·h/mL] | Structure (SMILES) |
| --- | --- | --- | --- | --- | --- | --- | --- |
| – | – | – | < 100 | 50 | 12 % of rifampicin | – | C[C@@H]1CN(c2nc(-n3ccc(OCCC4(C(F)(F)F)CC4)n3)ccc2C(=O)NS(=O)(=O)c2ccccc2Cl)C(C)(C)C1 [Comp. 43, N-(2-chlorophenyl) sulfonyl-6-[3-[2-[1-(trifluoromethyl)cyclopropyl]ethoxy]pyrazol-1-yl]-2-[(4S)-2,2,4-trimethylpyrrolidin-1-yl]pyridine-3-carboxamide] |
| – | – | – | < 100 | 50 | 4 % of rifampicin | – | Cc1ccccc1S(=O)(=O)NC(=O)c1ccc(-n2ccc(OCC3(C(F)(F)F)CCC3)n2)nc1N1C[C@@H](C)CC1(C)C [Comp. 58, N-(o-Tolylsulfonyl)-6-[3-[[1-(trifluoromethyl)cyclobutyl]methoxy]pyrazol-1-yl]-2-[(4S)-2,2,4-trimethylpyrrolidin-1-yl]pyridine-3-carboxamide] |
| – | – | – | – | 400 | 20 % of rifampicin | – | C[C@@H]1CN(c2nc(-n3ccc(OCC4CC4)n3)ccc2C(=O)NS(=O)(=O)c2cccnc2N)C(C)(C)C1 [Comp. D, reference compound] |
| – | 29.2 | – | – | – | 9 % of rifampicin | – | C[C@@H]1CN(c2nc(-n3ccc(OCC(C)(C)C)n3)ccc2C(=O)NS(=O)(=O)c2ccccc2)C(C)(C)C1 [Comp. B, reference compound] |
| – | – | – | < 100 | 30 | 32 % of rifampicin | – | C[C@@H]1CN(c2nc(-n3ccc(OCC4(C(F)(F)F)CC4)n3)ccc2C(=O)NS(=O)(=O)c2ccccc2F)C(C)(C)C1 [Comp. 50, N-(2-fluorophenyl)sulfonyl-6-[3-[[1-(trifluoromethyl)cyclopropyl]methoxy]pyrazol-1-yl]-2-[(4S)-2,2,4-trimethylpyrrolidin-1-yl]pyridine-3-carboxamide] |
| – | – | – | < 100 | 80 | 2 % of rifampicin | – | C[C@@H]1CN(c2nc(-n3ccc(OCC4C[C@@H]5CC[C@@H]4C5)n3)ccc2C(=O)NS(=O)(=O)c2ccccc2)C(C)(C)C1 (stereo partly drawn) [Comp. 40, N-(Benzenesulfonyl)-6-[3-[[(1R,4R)-norbornan-2-yl]methoxy]pyrazol-1-yl]-2-[(4S)-2,2,4-trimethylpyrrolidin-1-yl]pyridine-3-carboxamide] |
| – | – | – | < 100 | 50 | 22 % of rifampicin | – | C[C@@H]1CN(c2nc(-n3ccc(OCC4(C(F)F)CC4)n3)ccc2C(=O)NS(=O)(=O)c2ccccc2)C(C)(C)C1 [Comp. 55, N-(Benzenesulfonyl)-6-[3-[[1-(difluoromethyl)cyclopropyl]methoxy]pyrazol-1-yl]-2-[(4S)-2,2,4-trimethylpyrrolidin-1-yl]pyridine-3-carboxamide] |
| – | – | – | < 100 | 70 | 13 % of rifampicin | – | C[C@@H]1CN(c2nc(-n3ccc(O[C@H]4C[C@H]5CC[C@@H]4C5)n3)ccc2C(=O)NS(=O)(=O)c2ccccc2)C(C)(C)C1 [Comp. 39, N-(benzenesulfonyl)-6-[3-[(1R,2S,4S)-norbornan-2-yl]oxypyrazol-1-yl]-2-[(4S)-2,2,4-trimethylpyrrolidin-1-yl]pyridine-3-carboxamide] |
